This is an account of results in US11407756B2, “Heterocyclic compounds and noxious arthropod control agent containing same” (SUMITOMO CHEMICAL COMPANY, LIMITED, priority 2017, dated 2022).

The test system of the data set is German cockroaches (Blattella germanica). In words: Test method 8: treated filter paper with sucrose, male adult German cockroaches. It counts as in vivo. Particulars: 500 ppm, 0.7 mL on filter paper, after 6 days, 25° C. As to the method: Next, Test Examples are used to show effects of the Present compounds X on harmful arthropods. In the following Test Examples, the tests were carried out at 25° C.
Each test compound is formulated according to the process described in the Formulation Example 5 to obtain each formulation, and water is added thereto to prepare a diluted solution containing a prescribed concentration of each test compound.
A filter paper having a diameter of 5.5 cm is lined with the inside bottom of a cup having a diameter of 5.5 cm, each of said diluted solutions (0.7 mL) is added dropwise on the filter paper, and sucrose (30 mg) is homogeneously placed into said cup as a feed. Two (2) male adult German cockroaches (Blattella germanica) are released into said cup, and the cup is covered. After 6 days, life and death of the German cockroach are examined, the number of the dead insects is counted, and the mortality of insects is calculated by the following equation. Mortality(%)=(Number of dead insects/Number of test insects)×100

Structures are written as SMILES.

Molecule `CCS(=O)(=O)c1cc(OC(C)C)cnc1-n1ccc2nc(C(F)(F)F)cn2c1=O` [compound 12] yielded a mortality of 100%.
